Several values for one entry are separate records, joined by “and”; a condition that tells them apart may be missing. Identical values can stand only once.
Key:
[1] = tested on: C. glabrata; assay: Example 1 Screening II: Lactobacillus cell-free filtrate, turbidity; format: cell-based, Candida glabrata; settings: three times concentrated
Text: (§1) Clinical isolates of Candida albicans and Candida glabrata were used as test strains. These were isolated from the vagina of women with vaginal candidiasis and from healthy females. Suspensions of lactobacilli grown in dMRSs broth (MRS broth without addition of sodium acetate) were centrifuged and sterile filtered. The filtrate is henceforth called Lactobacillus Cell-free Filtrate, LCF. A specified volume was transferred to wells of a micro titre plate and was let to air dry and thereafter resuspended in sterile distilled water to a concentration three times higher and transferred to 96-wells micro titre plates. Candida was added to all vials (three isolates of C. albicans and C. glabrata, respectively, were used). The inhibition was evaluated by visual observation of turbidity and graduated by two persons using a template on a scale from five to zero. The wells containing strong growth of Candida sp. in pure dMRSs-broth was graduated as five, while wells with no visual growth were graduated as zero.

[2] = tested on: C. albicans; assay: as above; format: cell-based, Candida albicans; settings: three times concentrated
Text: as §1

[3] = tested on: Candida albicans 702; assay: Test 4: agar plug test, zones with no growth of Candida; format: cell-based; settings: for Zones around the plugs with no growth of Candida, Plug with LB931: ~10^7 LB 931 per plug
Text: The purpose of this test was to evaluate the enhanced Candida inhibition from Na-acetate in combination with growing cells of Lactobacillus plantarum LB 931. Two plates were made with M17 agar and two with MRS agar. MRS medium (developed by De Man, Rogosa and Sharpe), is a growth medium commonly used for Lactobacillus. MRS agar from Merck contains 5 g sodium acetate per litre agar. M17 (Oxoid) is a similar commercial substrate for Lactobacillus but without the addition of sodium acetate. The agars were prepared as described on the packages. Lactobacillus plantarum LB931 was cultivated in MRS broth in 37° C. with 5% CO2 for 24 hours. Candida albicans 702 was cultivated in M17 broth at 37° C. for 24 hours. Holes (Ø10 mm) were punched in the plates and filled with 250 μl plugs of agar mixtures containing ˜10^7 LB 931 in MRS agar). The plates were left for 30 minutes and then incubated 24 hours at 37° C. with 5% CO2. Overnight culture of C. albicans in M17 broth was diluted 10 times and 100 μl was spread on the surface of each plate. The plates were then incubated for 24 hours at 37° C. As controls, holes (Ø10 mm) were filled with only MRS agar. The plates were evaluated in respect to Candida growth inhibition. Zones around the plugs with no growth of Candida were measured (Ø mm).

Substance	inhibition of growth of C. glabrata [1]	inhibition of growth of C. albicans [2]	Zones around the plugs with no growth of Candida, Plug with LB931 ([3]; M17 agar in the Petri dish (without sodium acetate))	Candida growth inhibition, in words ([3]; M17 agar plates (without sodium acetate))	Zones around the plugs with no growth of Candida, Plug with LB931 ([3]; MRS agar in the Petri dish (contains 5 g sodium acetate per litre))	Candida growth inhibition zones, in words ([3]; MRS agar plates (sodium acetate))
Lactobacillus fermentum Ess-1	comprehensive capacity to inhibit growth of Candida	comprehensive capacity to inhibit growth of Candida	–	–	–	–
Lactobacillus plantarum LB 931 [LB931]	–	–	0 Ø mm	substantially no inhibition of Candida	18.8 Ø mm and 18.1 Ø mm	clear zones
